Test results reported in publication PMC10058583, “Development of Novel Fluorinated Polyphenols as Selective Inhibitors of DYRK1A/B Kinase for Treatment of Neuroinflammatory Diseases including Parkinson’s Disease” (Pharmaceuticals, 2023).
Like-named read-outs stand apart in the source and are kept apart here. Each block holds one molecule with its values, some of them ahead of it.

Legend:
[1] = biological target: T1, 6xHis-tagged rat-truncated DYRK1A (residues 1-497) (Rattus norvegicus, UniProt Q63470); experiment: ELISA-based non-radioactive kinase assay, DYRK1A; type: biochemical
T1 construct: 6xHis-tagged rat-truncated DYRK1A (residues 1-497); 6xHis; made in house

[2] = biological target: T2, human DYRK2 isoform 1 (6xHis-tagged) (Homo sapiens, UniProt Q92630); experiment: ELISA-based non-radioactive kinase assay, DYRK2; type: biochemical
T2 sequence (Q92630 74-601 limits assumed): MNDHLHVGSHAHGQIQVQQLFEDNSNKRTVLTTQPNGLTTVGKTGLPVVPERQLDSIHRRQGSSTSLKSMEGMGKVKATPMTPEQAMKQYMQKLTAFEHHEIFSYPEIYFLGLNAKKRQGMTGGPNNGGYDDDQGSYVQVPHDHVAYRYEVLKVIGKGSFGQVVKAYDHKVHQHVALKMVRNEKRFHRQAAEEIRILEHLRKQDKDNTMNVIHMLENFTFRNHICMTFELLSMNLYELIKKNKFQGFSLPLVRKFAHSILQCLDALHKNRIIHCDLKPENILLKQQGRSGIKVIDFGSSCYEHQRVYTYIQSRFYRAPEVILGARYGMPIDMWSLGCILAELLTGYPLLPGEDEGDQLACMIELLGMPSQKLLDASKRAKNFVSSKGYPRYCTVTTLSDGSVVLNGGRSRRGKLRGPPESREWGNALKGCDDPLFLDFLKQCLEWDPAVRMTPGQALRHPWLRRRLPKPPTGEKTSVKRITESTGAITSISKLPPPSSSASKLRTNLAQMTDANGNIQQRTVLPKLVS
Protocol: (§1) DYRK1B was prepared from human DYRK1B isoform p65 as glutathione S-transferase fusion protein, and DYRK2 was prepared from human DYRK2 isoform 1 as 6xHis-tagged protein, as previously described.
(§2) For DYRK2, the reactions were performed exactly as described for DYRK1A. For DYRK1B, the assays were similarly conducted but with 30 ng GST-DYRK1B and a kinase reaction time of 60 min.

[3] = Pharmacokinetic studies in C57BL/6 mice (plasma and tissues); type: in vivo, mouse; settings: PO (100 mg/kg)
Protocol: To overcome the generally poor PK profile of catechins, we developed a proprietary formulation that allows for the delivery of these drugs in high concentrations for oral (PO) or intranasal (IN) use. Our liquid formulation is based on the solubilizer and penetration enhancer (2-hydroxypropyl)-β-cyclodextrin (HP-β-CD), PEG-400, and water. This vehicle allows us to achieve high drug concentration in dosing solution (up to 20% w/w) when needed. PK studies were conducted for 1c in adult male and female C57BL/6 mice (n = 3/sex/time point) using (1) a single IV dose (5 mg/kg), (2) an IN dose (60 mg/kg, 5 µL of a clear solution/nostril/twice), and (3) a single PO dose (100 mg/kg). We analyzed the concentration of the drug in several tissues, including the brain, lungs, liver, and plasma. We observed that this class of molecules is stable in circulation; however, when the tissues are harvested for bioanalytical work, the drug undergoes rapid degradation, probably because of the direct contact with oxygen and metals, which catalyzes its rapid degradation/oxidation. We were able to stabilize the drug in blood by the immediate addition of ascorbic acid and TCEP [29]; however, the same was not possible with solid organs such as the brain and liver, which need to be collected through surgery and homogenized before any stabilizing agent can be added. Therefore, tissue PK data tend to vary.
C57BL/6J mice were given a single dose of drug via the IN or PO route. […] For PO delivery, we replaced water with saline. The volume for IN delivery was 5 µL/nostril, and the volume used for oral delivery was 10 mL/kg. After sacrifice, blood (500 µL) was collected into K2EDTA microtubes and kept on ice all times (must be centrifuged within 30 min of collection). Blood was centrifuged in EDTA vacuum at 4 °C at 15,000× g for 4 min; ~250 µL of plasma was collected into polyethylene tubes containing 50 µL of AA/TCEP stabilizing solution (20 mM ascorbic acid and 13 mM TCEP in 50 mM K2HPO4 buffer; the pH of the solution was adjusted to 6.5 using 2 M NaOH). Then, 200 µL of the collected plasma was mixed with (1) 24 µL of a solution of 10% ascorbic acid and 0.1% EDTA in 40 mM NaH2PO4; (2) 40 µL of 50 mM sodium phosphate (pH 7.4); (3) 500 units of β-D-glucuronidase type X-A from Escherichia coli (Sigma Chemical Co, St Louis, MO, USA), and (4) 4 units of sulfatase type VIII from abalone entrails (Sigma Chemical Co). The mixture was incubated at 37 °C for 45 min. Plasma was then extracted by the addition of 0.5 mL ACN; the mixture was vortex-mixed for 2 min, then snap-frozen with isopropanol/carbon dioxide dry ice, and the upper layer of ACN was removed. The process was repeated another 2 times. The ACN fractions were pooled into a polyethylene tube kept on ice. The combined fractions were evaporated under a gentle stream of nitrogen at ambient temperature. The residue obtained after evaporation was reconstituted in 200 µL of 75 mM citric acid//25 mM ammonium acetate: ACN (75:25 by vol), and vortexed vigorously for 5 min, and 20 µL of the resulting solution was injected into the LC-MS/MS column.
Drug analysis in tissues: About ~0.4 g of the tissue was homogenized with 1 mL of ice-cold 0.4 M sodium phosphate buffer containing 6 mg of ascorbic acid and 0.5 mg of Na2EDTA (final pH of 6.5). After centrifugation at 4 °C at 15,000× g for 4 min, the supernatant was collected into polyethylene tubes containing 50 µL of the AA/TCEP stabilizing solution. Then 1 U of sulfatase and 250 U of β-glucuronidase were added to the abovementioned homogenized mixture. Samples were incubated at 37 °C for 45 min, then extracted, dried, and resuspended in a manner similar to that for plasma. Samples were then analyzed by LC-MS/MS.

DYRK1A = settings: cited from earlier work
DYRK1B = settings: read-out: published IC50 DYRK1B; cited from earlier work
DYRK2 = settings: read-out: published IC50 DYRK2; cited from earlier work
[4] = biological target: T3, human DYRK1B isoform p65 (GST fusion) (Homo sapiens, UniProt Q9Y463); experiment: ELISA-based non-radioactive kinase assay, DYRK1B; type: biochemical; settings: 30 ng GST-DYRK1B, 60 min reaction
T3 construct: made in house
Protocol: as §1, §2

[5] = system: LPS-induced inflammation in C57BL/6J mice; experiment: LPS-induced inflammation model; type: in vivo, mouse; settings: positive control 1 mg/kg PO, LPS i.p. 750 µg/kg
Protocol: Neuroinflammation is an important factor contributing to cognitive impairment and neurodegenerative diseases such as PD, and the administration of LPS is frequently used to study neuroinflammation-associated diseases in mice.
Each group consisted of six male mice. […] Animals were pretreated for 3 days with the drug of choice; then, treatment with LPS commenced on day 0, and on the 5th day of LPS treatment, the drug was administered half an hour before LPS injection. One hour after LPS treatment, the animals were anesthetized with a mixture of ketamine, xylazine 2%, atropine, and saline (4:2.5:1:2.5). The body temperature of mice under anesthesia was maintained by applying a heating blanket and monitored using a rectal thermometer. After anesthesia, the animals underwent cardiac perfusion with ice-cold saline for three minutes (3 mL/minute via peristaltic pump) via the left ventricle. The right atrium was cut as an outflow route. The right hemisphere was post-fixed overnight in 4% PFA in PBS at 4 °C and stored in 1xPBS containing 0.1% (v/w) sodium azide at 4 °C. The left hemisphere, hippocampus, cortex, midbrain, and brainstem were microdissected, immersed in liquid nitrogen in separate tubes (with one-fifth of the rest of the brain tissue), and stored in microfuge tubes at −80°. TNFα (in both plasma and the hippocampus) was analyzed with ELISA, and the p-tau (AT-8 antibody) level was recorded in the hippocampus and cortex with WB.

[6] = both sexes, C57BL/6, mouse, plasma

T3 sequence (Q9Y463 1-589 isoform Q9Y463-2): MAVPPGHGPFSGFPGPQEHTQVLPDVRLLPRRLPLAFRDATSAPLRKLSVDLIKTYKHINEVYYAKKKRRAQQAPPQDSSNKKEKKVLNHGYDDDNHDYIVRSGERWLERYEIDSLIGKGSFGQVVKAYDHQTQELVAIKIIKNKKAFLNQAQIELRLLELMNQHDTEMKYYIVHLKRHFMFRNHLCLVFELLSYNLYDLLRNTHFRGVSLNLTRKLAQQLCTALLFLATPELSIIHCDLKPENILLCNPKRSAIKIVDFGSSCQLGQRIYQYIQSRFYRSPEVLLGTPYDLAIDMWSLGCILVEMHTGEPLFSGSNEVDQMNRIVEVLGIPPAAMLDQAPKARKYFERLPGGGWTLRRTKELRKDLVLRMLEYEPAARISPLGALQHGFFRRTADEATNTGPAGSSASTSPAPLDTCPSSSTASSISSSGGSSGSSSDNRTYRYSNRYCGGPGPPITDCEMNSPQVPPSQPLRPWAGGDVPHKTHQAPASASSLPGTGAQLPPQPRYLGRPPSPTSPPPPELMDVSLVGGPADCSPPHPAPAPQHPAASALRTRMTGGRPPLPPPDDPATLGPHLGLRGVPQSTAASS

IC50 ([1]; read-out: DYRK1A IC50): 136 nM
SMILES: O=C(O[C@@H]1Cc2c(O)cc(O)cc2O[C@H]1c1cc(O)c(O)c(O)c1)c1cc(OC(F)F)c(O)c(O)c1F [Compound 1g]

SMILES: O=C(O[C@@H]1Cc2c(O)cc(O)cc2O[C@@H]1c1cc(O)c(O)c(O)c1)c1cc(O)c(O)c(O)c1 [EGCG, epigallocatechin gallate, reference compound]
IC50 [2]: 1490 nM
AUC(0-inf) [3, 6]: 395 ng·h/mL
AUC(0-t) [3, 6]: 360 ng·h/mL
Cmax [3, 6]: 55 ng/mL
half-life [3, 6]: 5.02 h
bioavailability ([3]; both sexes, C57BL/6, mouse, plasma, po, 100 mg/kg, plasma, read-out: F (absolute bioavailability)): 2%
IC50 (DYRK1A; allosteric inhibitor, read-out: DYRK1A in vitro IC50): 300 to 400 nM

SMILES: COc1cc(N2CCN(C)CC2)ccc1Nc1nccc(-c2cn(C)c3cnccc23)n1 [AZ-191]
IC50 [1]: 98 nM
IC50 [2]: 1720 nM
IC50 (DYRK1A; read-out: published IC50 DYRK1A): 88 nM
IC50 (DYRK1B): 17 nM
IC50 (DYRK2): 1890 nM

IC50 ([1]; read-out: DYRK1A IC50): 206 nM
SMILES: COc1cc(C(=O)OC2Cc3c(O)cc(O)cc3OC2c2cc(O)c(O)c(O)c2)cc(O)c1O (stereo not shown) [GCG-3”OMe, reference compound]

IC50 ([1]; read-out: DYRK1A IC50): 35 nM
IC50 [4]: 42 nM
IC50 [2]: 258 nM
SMILES: O=C(O[C@@H]1Cc2c(O)cc(O)cc2O[C@H]1c1cc(O)c(O)c(O)c1)c1cc(O)c(O)c(O)c1F [Compound 1a]

SMILES: O=C(O[C@@H]1Cc2c(O)cc(O)cc2O[C@H]1c1cc(O)c(O)c(O)c1)c1cc(O)c(O)c(O)c1 [GCG, reference compound]
IC50 [2]: 574 nM

IC50 ([1]; read-out: DYRK1A IC50): 356 nM
SMILES: CC(C)Oc1c(O)c(O)c(F)c(C(=O)O[C@@H]2Cc3c(O)cc(O)cc3O[C@H]2c2cc(O)c(O)c(O)c2)c1F [Compound 1h]

IC50 ([1]; read-out: DYRK1A IC50): 152 nM
SMILES: COc1c(O)c(O)cc(C(=O)O[C@@H]2Cc3c(O)cc(O)cc3O[C@H]2c2cc(O)c(O)c(O)c2)c1F [Compound 1d]

improvement in anti-DYRK1A activity compared to EGCG [1]: eightfold
IC50 ([1]; read-out: DYRK1A IC50): 28 nM
IC50 [4]: 45 nM
IC50 [2]: 181 nM
bioavailability (in words) [3]: much lower than that of 1c
Tlast ([3]; plasma): 24 h
AUC(0-inf) [3, 6]: 472 ng·h/mL
AUC(0-t) [3, 6]: 379 ng·h/mL
Cmax [3, 6]: 131 ng/mL
Tmax [3, 6]: 0.5 h
half-life [3, 6]: 12.7 h
SMILES: O=C(O[C@@H]1Cc2c(O)cc(O)cc2O[C@H]1c1cc(O)c(O)c(O)c1)c1c(F)c(O)c(O)c(O)c1F [Compound 1b]

IC50 ([1]; read-out: DYRK1A IC50): 125 nM
SMILES: COc1c(O)c(O)c(F)c(C(=O)O[C@@H]2Cc3c(O)cc(O)cc3O[C@H]2c2cc(O)c(O)c(O)c2)c1F [Compound 1e]

IC50 ([1]; read-out: DYRK1A IC50): 252 nM
SMILES: O=C(O[C@@H]1Cc2c(O)cc(O)cc2O[C@H]1c1cc(O)c(O)c(O)c1)c1cc(O)c(O)c(OC(F)F)c1 [Compound 1f]

SMILES: C[C@@H]1C[C@H]2[C@@H]3CCC4=CC(=O)C=C[C@]4(C)[C@@]3(F)[C@@H](O)C[C@]2(C)[C@@]1(O)C(=O)CO [Dexamethasone, reference compound]
efficacy in plasma [5]: high efficacy
